Results from PubChem BioAssay (NCI).
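GI50 is the concentration that inhibits growth by half. The concentration for full growth arrest is given as TGI.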

Tests used:
Assay in all cases: NCI tumour cell line growth inhibition, 384-well format; in the data active = GI50 below about 0.43 µM; inactive = the rest
SK-MEL-2 melanoma = test system: SK-MEL-2 melanoma
NCI/ADR-RES ovarian = test system: NCI/ADR-RES ovarian
SR leukemia = test system: SR leukemia
TK-10 renal = test system: TK-10 renal
OVCAR-5 ovarian = test system: OVCAR-5 ovarian
HS 578T breast = test system: HS 578T breast
SK-OV-3 ovarian = test system: SK-OV-3 ovarian
CCRF-CEM leukemia = test system: CCRF-CEM leukemia
LOX IMVI melanoma = test system: LOX IMVI melanoma
PC-3 prostate = test system: PC-3 prostate
MDA-MB-435 melanoma = test system: MDA-MB-435 melanoma
EKVX NSCLC = test system: EKVX NSCLC
SW-620 colon = test system: SW-620 colon
SK-MEL-5 melanoma = test system: SK-MEL-5 melanoma
RPMI-8226 leukemia = test system: RPMI-8226 leukemia
OVCAR-8 ovarian = test system: OVCAR-8 ovarian
HL-60(TB) leukemia = test system: HL-60(TB) leukemia
UACC-257 melanoma = test system: UACC-257 melanoma
NCI-H226 lung = test system: NCI-H226 lung
SF-268 CNS = test system: SF-268 CNS
A498 renal = test system: A498 renal
HCT-15 colon = test system: HCT-15 colon
SN12C renal = test system: SN12C renal
RXF 393 renal = test system: RXF 393 renal
CAKI-1 renal = test system: CAKI-1 renal
OVCAR-3 ovarian = test system: OVCAR-3 ovarian
SNB-75 CNS = test system: SNB-75 CNS
COLO 205 colon = test system: COLO 205 colon
HCC-2998 colon = test system: HCC-2998 colon
HT29 colon = test system: HT29 colon
SF-295 CNS = test system: SF-295 CNS
HCT-116 colon = test system: HCT-116 colon
M14 melanoma = test system: M14 melanoma
MALME-3M melanoma = test system: MALME-3M melanoma
786-0 renal = test system: 786-0 renal
ACHN renal = test system: ACHN renal
UO-31 renal = test system: UO-31 renal
MCF7 breast = test system: MCF7 breast
MOLT-4 leukemia = test system: MOLT-4 leukemia
OVCAR-4 ovarian = test system: OVCAR-4 ovarian
K-562 leukemia = test system: K-562 leukemia
T-47D breast = test system: T-47D breast
HOP-92 NSCLC = test system: HOP-92 NSCLC
A549 NSCLC = test system: A549 NSCLC
HOP-62 NSCLC = test system: HOP-62 NSCLC
NCI-H322M lung = test system: NCI-H322M lung
DU-145 prostate = test system: DU-145 prostate

Nc1nc(OCc2cc(Br)cs2)c2[nH]cnc2n1
inactive: GI50 (SK-MEL-2 melanoma) 35.5 µM | GI50 (NCI/ADR-RES ovarian) 53.7 µM | GI50 (SR leukemia) 8.96 µM | GI50 (TK-10 renal) 30.5 µM | GI50 (OVCAR-5 ovarian) > 95.3 µM | GI50 (HS 578T breast) 22.8 µM | GI50 (SK-OV-3 ovarian) 29.1 µM | GI50 (CCRF-CEM leukemia) 19.4 µM | GI50 (LOX IMVI melanoma) 22.5 µM | GI50 (PC-3 prostate) 74 µM | GI50 (MDA-MB-435 melanoma) 43.1 µM | GI50 (EKVX NSCLC) 39.9 µM | GI50 (SW-620 colon) 67.4 µM | GI50 (SK-MEL-5 melanoma) 40.9 µM | GI50 (RPMI-8226 leukemia) 20.4 µM | GI50 (OVCAR-8 ovarian) 45.9 µM | GI50 (HL-60(TB) leukemia) 18 µM | GI50 (UACC-257 melanoma) 51.7 µM | GI50 (NCI-H226 lung) 45.9 µM | GI50 (SF-268 CNS) 32.1 µM | GI50 (A498 renal) 30.3 µM | GI50 (HCT-15 colon) 33.9 µM | GI50 (SN12C renal) 29 µM | GI50 (RXF 393 renal) 24.5 µM | GI50 (CAKI-1 renal) 25.1 µM | GI50 (OVCAR-3 ovarian) 61.8 µM | GI50 (SNB-75 CNS) 29.7 µM | GI50 (COLO 205 colon) 72.9 µM | GI50 (HCC-2998 colon) 66.7 µM | GI50 (HT29 colon) 46 µM | GI50 (SF-295 CNS) 48.7 µM | GI50 (HCT-116 colon) 38.4 µM | GI50 (M14 melanoma) 47.9 µM | GI50 (MALME-3M melanoma) 55.1 µM | GI50 ([…]-0 renal) 27.3 µM | GI50 (ACHN renal) 30.2 µM | GI50 (UO-31 renal) 4.73 µM | GI50 (MCF7 breast) 32.6 µM | GI50 (MOLT-4 leukemia) 17.3 µM | GI50 (OVCAR-4 ovarian) > 78.7 µM | GI50 (K-562 leukemia) 27.8 µM | GI50 (T-47D breast) 23.4 µM | GI50 (HOP-92 NSCLC) 40.8 µM | GI50 (A549 NSCLC) 42.6 µM | GI50 (HOP-62 NSCLC) 36.7 µM | GI50 (NCI-H322M lung) 30.7 µM | GI50 (DU-145 prostate) 44.7 µM
25.2 µM: TGI (SR leukemia)
61.9 µM: TGI (HS 578T breast)
80.3 µM: TGI (NCI-H322M lung)
74.7 µM: TGI (SK-OV-3 ovarian)
86.6 µM: TGI (CAKI-1 renal)
40.3 µM: TGI (CCRF-CEM leukemia)
35.8 µM: TGI (HL-60(TB) leukemia)
47.8 µM: TGI (LOX IMVI melanoma)
96.9 µM: TGI (NCI-H226 lung)
63.5 µM: TGI (T-47D breast)
73.6 µM: TGI (SK-MEL-2 melanoma)
> 100 µM: TGI (NCI/ADR-RES ovarian) | TGI (TK-10 renal) | TGI (OVCAR-5 ovarian) | TGI (PC-3 prostate) | TGI (MDA-MB-435 melanoma) | TGI (EKVX NSCLC) | TGI (SW-620 colon) | TGI (SK-MEL-5 melanoma) | TGI (OVCAR-8 ovarian) | TGI (UACC-257 melanoma) | TGI (A498 renal) | TGI (HCT-15 colon) | TGI (SN12C renal) | TGI (OVCAR-3 ovarian) | TGI (COLO 205 colon) | TGI (HCC-2998 colon) | TGI (HT29 colon) | TGI (SF-295 CNS) | TGI (HCT-116 colon) | TGI (M14 melanoma) | TGI (MALME-3M melanoma) | TGI (786-0 renal) | TGI (ACHN renal) | TGI (UO-31 renal) | TGI (MCF7 breast) | TGI (OVCAR-4 ovarian) | TGI (K-562 leukemia) | TGI (HOP-92 NSCLC) | TGI (A549 NSCLC) | TGI (DU-145 prostate)
62.7 µM: TGI (RXF 393 renal)
37.5 µM: TGI (MOLT-4 leukemia)
40.4 µM: TGI (RPMI-8226 leukemia)
> 84.9 µM: TGI (SF-268 CNS)
99.4 µM: TGI (HOP-62 NSCLC)
85.4 µM: TGI (SNB-75 CNS)
